The values that follow come from patent US20210253718A1, “FRIZZLED5 PROTEIN-BINDING AGENTS” (Modmab Therapeutics Corporation, priority 2016, published 2021).

The assay relates to RWP1 cells. Nature of the assay: Effect of anti-FZD5 Fabs on proliferation of pancreatic cancer cell lines (percent growth inhibition). The format is cell-based, human. Particulars: Fab 2 μg/ml.

As to “Fab-2931: anti-FZD5 Fab with antibody variable region Fv-2931; CDR SEQ ID NOs: 35, 36, 70, 102, 146, 176 (CDR 1 QSVSSA; CDR 2 SAS; CDR 3 QQSSYSLIT; CDR 4 GFNLSYSS; CDR 5 ISPYSGST; CDR 6 ARGSYWYVGGGWWVSGHGGMDY)”, the “percent growth inhibition, RWP1 2 μg/ml” value was 15.35%.
